Assay results: patent US11945813B2, “5-substituted 4-amino-1H-benzo[c][1,2,6]thiadiazine 2,2-dioxides and formulations and uses thereof” (Firmenich Incorporated, priority 2018, dated 2024)

Molecular target: T1, T1R2/T1R3 taste receptor (Homo sapiens, UniProt Q8TE23)
T1 sequence (Q8TE23 20-839): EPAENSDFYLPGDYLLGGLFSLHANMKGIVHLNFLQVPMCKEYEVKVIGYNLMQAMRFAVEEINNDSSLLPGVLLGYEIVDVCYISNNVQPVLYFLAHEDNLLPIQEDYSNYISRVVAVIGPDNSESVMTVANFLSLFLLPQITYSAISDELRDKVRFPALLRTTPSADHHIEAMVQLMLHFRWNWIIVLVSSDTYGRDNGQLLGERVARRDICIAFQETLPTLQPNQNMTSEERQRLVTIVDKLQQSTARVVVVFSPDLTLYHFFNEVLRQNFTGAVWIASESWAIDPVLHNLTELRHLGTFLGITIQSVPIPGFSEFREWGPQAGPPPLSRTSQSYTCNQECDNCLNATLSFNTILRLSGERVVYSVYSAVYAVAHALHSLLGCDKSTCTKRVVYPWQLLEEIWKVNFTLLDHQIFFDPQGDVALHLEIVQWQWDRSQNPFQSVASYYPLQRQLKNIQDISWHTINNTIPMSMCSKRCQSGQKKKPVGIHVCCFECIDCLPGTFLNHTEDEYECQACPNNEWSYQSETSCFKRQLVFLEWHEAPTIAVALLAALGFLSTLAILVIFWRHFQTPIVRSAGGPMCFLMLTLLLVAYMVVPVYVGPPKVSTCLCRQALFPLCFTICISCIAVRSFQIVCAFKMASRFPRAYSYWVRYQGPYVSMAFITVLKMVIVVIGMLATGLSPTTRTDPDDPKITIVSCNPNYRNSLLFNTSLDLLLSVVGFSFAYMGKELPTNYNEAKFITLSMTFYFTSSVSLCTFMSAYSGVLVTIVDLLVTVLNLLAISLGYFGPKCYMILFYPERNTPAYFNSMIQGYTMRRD
T1 sequence (Q7RTX0 21-852 partner): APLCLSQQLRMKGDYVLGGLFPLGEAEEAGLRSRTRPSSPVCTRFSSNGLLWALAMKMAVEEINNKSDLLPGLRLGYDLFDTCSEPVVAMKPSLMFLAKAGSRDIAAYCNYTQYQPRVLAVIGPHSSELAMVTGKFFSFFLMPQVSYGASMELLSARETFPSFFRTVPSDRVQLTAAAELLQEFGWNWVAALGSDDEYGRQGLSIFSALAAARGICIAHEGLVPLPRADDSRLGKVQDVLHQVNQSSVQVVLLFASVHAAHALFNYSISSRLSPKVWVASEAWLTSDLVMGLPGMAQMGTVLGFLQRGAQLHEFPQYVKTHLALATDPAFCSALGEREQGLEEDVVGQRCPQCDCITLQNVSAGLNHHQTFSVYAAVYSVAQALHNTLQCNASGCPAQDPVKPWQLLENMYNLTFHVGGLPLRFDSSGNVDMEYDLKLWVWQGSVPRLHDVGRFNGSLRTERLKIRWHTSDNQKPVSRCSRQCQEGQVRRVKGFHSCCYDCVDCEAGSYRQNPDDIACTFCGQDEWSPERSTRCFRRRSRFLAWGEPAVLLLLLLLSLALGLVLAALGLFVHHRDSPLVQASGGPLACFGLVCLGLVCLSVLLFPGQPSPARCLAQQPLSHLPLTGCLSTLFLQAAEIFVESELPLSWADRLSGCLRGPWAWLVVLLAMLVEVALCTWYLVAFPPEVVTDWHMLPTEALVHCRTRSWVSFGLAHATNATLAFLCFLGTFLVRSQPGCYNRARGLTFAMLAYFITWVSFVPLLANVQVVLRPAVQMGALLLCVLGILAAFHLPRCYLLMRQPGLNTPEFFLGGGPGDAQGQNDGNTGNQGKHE
Assay: Receptor-based assay: sweetener EC50 alone and with test compound (enhancement ratio)
Type: cell-based
Conditions: for Fructose Enhancement EC50 Ratio: sweetener fructose; for Sucralose Enhancement EC50 Ratio: sweetener sucralose; for Sucrose Enhancement EC50 Ratio: sweetener sucrose
Summary of the method: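 Sucrose, sucralose or fructose EC50 measured on human T1R2/T1R3, alone and with 3, 10 or 50 μM test compound. Enhancement is the EC50 ratio without/with compound, binned A >20, B 10-20, C >1 to <10.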

CC(C)NC(=O)c1ccnc(N2CCC[C@H](COc3cccc4c3C(N)=NS(=O)(=O)N4)C2)c1 [Compound 606]
Fructose Enhancement EC50 Ratio (10 μM test compound): C (A “C” value indicates an enhancement ratio greater than 1 and less than 10)
Fructose Enhancement EC50 Ratio (50 μM test compound): C (A “C” value indicates an enhancement ratio greater than 1 and less than 10)
Sucralose Enhancement EC50 Ratio (10 μM test compound): A (An “A” value indicates an enhancement ratio of greater than 20)
Sucralose Enhancement EC50 Ratio (50 μM test compound): A (An “A” value indicates an enhancement ratio of greater than 20)
Sucrose Enhancement EC50 Ratio (3 μM test compound): C (A “C” value indicates an enhancement ratio greater than 1 and less than 10)
Sucrose Enhancement EC50 Ratio (10 μM test compound): B (A “B” value indicates an enhancement ratio from 10 to 20)
Sucrose Enhancement EC50 Ratio (50 μM test compound): C (A “C” value indicates an enhancement ratio greater than 1 and less than 10)

NC1=NS(=O)(=O)Nc2cccc(OC[C@H]3CCCN(c4cc(C(=O)NC5CC5)ccn4)C3)c21 [Compound 607]
Fructose Enhancement EC50 Ratio (10 μM test compound): C (A “C” value indicates an enhancement ratio greater than 1 and less than 10)
Sucrose Enhancement EC50 Ratio (3 μM test compound): A (An “A” value indicates an enhancement ratio of greater than 20)
Sucrose Enhancement EC50 Ratio (10 μM test compound): B (A “B” value indicates an enhancement ratio from 10 to 20)
Sucrose Enhancement EC50 Ratio (50 μM test compound): C (A “C” value indicates an enhancement ratio greater than 1 and less than 10)

NC1=NS(=O)(=O)Nc2cccc(OC[C@H]3CCCN(c4cc(C(=O)NC5CCCC5)ccn4)C3)c21 [Compound 608]
Fructose Enhancement EC50 Ratio (10 μM test compound): C (A “C” value indicates an enhancement ratio greater than 1 and less than 10)
Fructose Enhancement EC50 Ratio (50 μM test compound): C (A “C” value indicates an enhancement ratio greater than 1 and less than 10)
Sucralose Enhancement EC50 Ratio (10 μM test compound): A (An “A” value indicates an enhancement ratio of greater than 20)
Sucralose Enhancement EC50 Ratio (50 μM test compound): A (An “A” value indicates an enhancement ratio of greater than 20)
Sucrose Enhancement EC50 Ratio (3 μM test compound): C (A “C” value indicates an enhancement ratio greater than 1 and less than 10)
Sucrose Enhancement EC50 Ratio (10 μM test compound): C (A “C” value indicates an enhancement ratio greater than 1 and less than 10)
Sucrose Enhancement EC50 Ratio (50 μM test compound): B (A “B” value indicates an enhancement ratio from 10 to 20)

NC1=NS(=O)(=O)Nc2cccc(OC[C@H]3CCCN(c4cc(C(=O)NC5CCCCC5)ccn4)C3)c21 [Compound 609]
Fructose Enhancement EC50 Ratio (10 μM test compound): C (A “C” value indicates an enhancement ratio greater than 1 and less than 10)
Fructose Enhancement EC50 Ratio (50 μM test compound): C (A “C” value indicates an enhancement ratio greater than 1 and less than 10)
Sucralose Enhancement EC50 Ratio (10 μM test compound): B (A “B” value indicates an enhancement ratio from 10 to 20)
Sucralose Enhancement EC50 Ratio (50 μM test compound): B (A “B” value indicates an enhancement ratio from 10 to 20)
Sucrose Enhancement EC50 Ratio (3 μM test compound): C (A “C” value indicates an enhancement ratio greater than 1 and less than 10)
Sucrose Enhancement EC50 Ratio (10 μM test compound): C (A “C” value indicates an enhancement ratio greater than 1 and less than 10)
Sucrose Enhancement EC50 Ratio (50 μM test compound): C (A “C” value indicates an enhancement ratio greater than 1 and less than 10)

CN(C)C(=O)c1ccnc(N2CCC[C@H](COc3cccc4c3C(N)=NS(=O)(=O)N4)C2)c1 [Compound 610]
Fructose Enhancement EC50 Ratio (10 μM test compound): C (A “C” value indicates an enhancement ratio greater than 1 and less than 10)
Fructose Enhancement EC50 Ratio (50 μM test compound): C (A “C” value indicates an enhancement ratio greater than 1 and less than 10)
Sucralose Enhancement EC50 Ratio (10 μM test compound): A (An “A” value indicates an enhancement ratio of greater than 20)
Sucralose Enhancement EC50 Ratio (50 μM test compound): A (An “A” value indicates an enhancement ratio of greater than 20)
Sucrose Enhancement EC50 Ratio (10 μM test compound): C (A “C” value indicates an enhancement ratio greater than 1 and less than 10)
Sucrose Enhancement EC50 Ratio (50 μM test compound): B (A “B” value indicates an enhancement ratio from 10 to 20)

CCN(CC)C(=O)c1ccnc(N2CCC[C@H](COc3cccc4c3C(N)=NS(=O)(=O)N4)C2)c1 [Compound 611]
Fructose Enhancement EC50 Ratio (10 μM test compound): C (A “C” value indicates an enhancement ratio greater than 1 and less than 10)
Sucralose Enhancement EC50 Ratio (10 μM test compound): B (A “B” value indicates an enhancement ratio from 10 to 20)
Sucralose Enhancement EC50 Ratio (50 μM test compound): A (An “A” value indicates an enhancement ratio of greater than 20)
Sucrose Enhancement EC50 Ratio (3 μM test compound): C (A “C” value indicates an enhancement ratio greater than 1 and less than 10)
Sucrose Enhancement EC50 Ratio (10 μM test compound): B (A “B” value indicates an enhancement ratio from 10 to 20)
Sucrose Enhancement EC50 Ratio (50 μM test compound): C (A “C” value indicates an enhancement ratio greater than 1 and less than 10)

NC1=NS(=O)(=O)Nc2cccc(OC[C@H]3CCCN(c4cc(C(=O)N5CCCC5)ccn4)C3)c21 [Compound 612]
Fructose Enhancement EC50 Ratio (10 μM test compound): C (A “C” value indicates an enhancement ratio greater than 1 and less than 10)
Fructose Enhancement EC50 Ratio (50 μM test compound): C (A “C” value indicates an enhancement ratio greater than 1 and less than 10)
Sucralose Enhancement EC50 Ratio (10 μM test compound): A (An “A” value indicates an enhancement ratio of greater than 20)
Sucralose Enhancement EC50 Ratio (50 μM test compound): A (An “A” value indicates an enhancement ratio of greater than 20)
Sucrose Enhancement EC50 Ratio (3 μM test compound): C (A “C” value indicates an enhancement ratio greater than 1 and less than 10)
Sucrose Enhancement EC50 Ratio (10 μM test compound): C (A “C” value indicates an enhancement ratio greater than 1 and less than 10)
Sucrose Enhancement EC50 Ratio (50 μM test compound): C (A “C” value indicates an enhancement ratio greater than 1 and less than 10)

NC1=NS(=O)(=O)Nc2cccc(OC[C@H]3CCCN(c4cc(C(=O)N5CCCCC5)ccn4)C3)c21 [Compound 613]
Sucralose Enhancement EC50 Ratio (10 μM test compound): A (An “A” value indicates an enhancement ratio of greater than 20)
Sucralose Enhancement EC50 Ratio (50 μM test compound): A (An “A” value indicates an enhancement ratio of greater than 20)
Sucrose Enhancement EC50 Ratio (10 μM test compound): C (A “C” value indicates an enhancement ratio greater than 1 and less than 10)
Sucrose Enhancement EC50 Ratio (50 μM test compound): C (A “C” value indicates an enhancement ratio greater than 1 and less than 10)

NC1=NS(=O)(=O)Nc2cccc(OC[C@H]3CCCN(c4cc(C(=O)N5CCOCC5)ccn4)C3)c21 [Compound 614]
Fructose Enhancement EC50 Ratio (50 μM test compound): C (A “C” value indicates an enhancement ratio greater than 1 and less than 10)
Sucralose Enhancement EC50 Ratio (10 μM test compound): A (An “A” value indicates an enhancement ratio of greater than 20)
Sucralose Enhancement EC50 Ratio (50 μM test compound): A (An “A” value indicates an enhancement ratio of greater than 20)
Sucrose Enhancement EC50 Ratio (3 μM test compound): C (A “C” value indicates an enhancement ratio greater than 1 and less than 10)
Sucrose Enhancement EC50 Ratio (50 μM test compound): A (An “A” value indicates an enhancement ratio of greater than 20)

CN1CCN(C(=O)c2ccnc(N3CCC[C@H](COc4cccc5c4C(N)=NS(=O)(=O)N5)C3)c2)CC1 [Compound 615]
Sucralose Enhancement EC50 Ratio (10 μM test compound): A (An “A” value indicates an enhancement ratio of greater than 20)
Sucralose Enhancement EC50 Ratio (50 μM test compound): A (An “A” value indicates an enhancement ratio of greater than 20)
Sucrose Enhancement EC50 Ratio (3 μM test compound): C (A “C” value indicates an enhancement ratio greater than 1 and less than 10)
Sucrose Enhancement EC50 Ratio (10 μM test compound): C (A “C” value indicates an enhancement ratio greater than 1 and less than 10)
Sucrose Enhancement EC50 Ratio (50 μM test compound): B (A “B” value indicates an enhancement ratio from 10 to 20)

CC(C)CNC(=O)c1ccnc(N2CCC[C@H](COc3cccc4c3C(N)=NS(=O)(=O)N4)C2)c1 [Compound 616]
Fructose Enhancement EC50 Ratio (50 μM test compound): C (A “C” value indicates an enhancement ratio greater than 1 and less than 10)
Sucralose Enhancement EC50 Ratio (10 μM test compound): A (An “A” value indicates an enhancement ratio of greater than 20)
Sucralose Enhancement EC50 Ratio (50 μM test compound): A (An “A” value indicates an enhancement ratio of greater than 20)
Sucrose Enhancement EC50 Ratio (3 μM test compound): C (A “C” value indicates an enhancement ratio greater than 1 and less than 10)
Sucrose Enhancement EC50 Ratio (10 μM test compound): C (A “C” value indicates an enhancement ratio greater than 1 and less than 10)
Sucrose Enhancement EC50 Ratio (50 μM test compound): C (A “C” value indicates an enhancement ratio greater than 1 and less than 10)
